Experimental data as given in patent US4963542A, “Cephalosporin derivatives” (Takeda Chemical Industries, Ltd., priority 1976, dated 1990).

What was measured:
Escherichia coli 0-111 [1] = experiment: Therapeutic effects on infected mice; assay type: in vivo, Male mouse, ICR/SLC; conditions: Escherichia coli, 0111, sc, 168 h, s.c. single dose immediately after intraperitoneal infection, 7 days observation
Experimental: The therapeutic efficacies of several representative compounds [I] of this invention and of cephaloridine on infected mice are also set forth in the tables.
(b) Therapeutic effects on infected mice (Table 3 and Table 4)
Test animal: Male mouse, ICR/SLC
A group of five animals was employed per drug.
Route of infection: Intraperitoneal
Infectious bacteria: Escherichia coli 0-111
Period of observation: 7 days
Method of administration: Test compound (1 mg, 10 mg, 100 mg or 200 mg) was dissolved in sterile saline solution (100 ml) and 0.2 ml of the solution was administered subcutaneously as a single dose immediately after infection. Two fold dilutions of each solution were administered to five groups of 5 mice each.

[2] = test system: Klebsiella pneumoniae GN-3835; experiment: Minimal inhibitory concentration, agar serial dilution; assay type: cell-based; conditions: TSA, inoculum 10^7 /ml
Source text: (§1) (a) Minimal inhibitory concentrations (Table 1 and 2)
(§2) Method: Agar serial dilution

Proteus mirabilis GN4359 = experiment: as above; assay type: cell-based; conditions: TSA, inoculum 10^7 /ml
Source text: as §1, §2

Proteus rettgeri TN338 = experiment: as above; assay type: cell-based; conditions: TSA, inoculum 10^7 /ml
Source text: as §1, §2

[3] = test system: Staphylococcus aureus 209P; experiment: as above; assay type: cell-based; conditions: TSA, inoculum 10^7 /ml
Source text: as §1, §2

[4] = test system: Serratia marcescens IFO 12648; experiment: as above; assay type: cell-based; conditions: TSA, inoculum 10^7 /ml
Source text: as §1, §2

Proteus rettgeri GN4733 = experiment: as above; assay type: cell-based; conditions: TSA, inoculum 10^7 /ml
Source text: as §1, §2

Proteus morganii IFO3168 = experiment: as above; assay type: cell-based; conditions: TSA, inoculum 10^7 /ml
Source text: as §1, §2

Escherichia coli 0-111 [5] = experiment: as above; assay type: cell-based; conditions: TSA, inoculum 10^7 /ml
Source text: as §1, §2

Escherichia coli T-7 = experiment: as above; assay type: cell-based; conditions: TSA, inoculum 10^7 /ml
Source text: as §1, §2

[6] = test system: Enterobacter cloacae TN1282; experiment: as above; assay type: cell-based; conditions: TSA, inoculum 10^7 /ml
Source text: as §1, §2

Serratia marcescens TN24 = experiment: as above; assay type: cell-based; conditions: TSA, inoculum 10^7 /ml
Source text: as §1, §2

[7] = test system: Escherichia coli NIHJ JC-2; experiment: as above; assay type: cell-based; conditions: TSA, inoculum 10^7 /ml
Source text: as §1, §2

[8] = test system: Citrobacter freundii GN1706; experiment: as above; assay type: cell-based; conditions: TSA, inoculum 10^7 /ml
Source text: as §1, §2

Proteus vulgaris GN4413 = experiment: as above; assay type: cell-based; conditions: TSA, inoculum 10^7 /ml
Source text: as §1, §2

Klebsiella pneumoniae DT = experiment: as above; assay type: cell-based; conditions: TSA, inoculum 10^7 /ml
Source text: as §1, §2

[9] = test system: Proteus vulgaris IFO 3988; experiment: as above; assay type: cell-based; conditions: TSA, inoculum 10^7 /ml
Source text: as §1, §2

[10] = test system: Citrobacter freundii GN99; experiment: as above; assay type: cell-based; conditions: TSA, inoculum 10^7 /ml
Source text: as §1, §2

[11] = test system: Staphylococcus aureus 1840; experiment: as above; assay type: cell-based; conditions: TSA, inoculum 10^7 /ml
Source text: as §1, §2

CC(=O)OCC1=C(C(=O)O)N2C(=O)C(NC(=O)/C(=N\O)c3csc(=N)[nH]3)C2SC1 (stereo not drawn) [Example 5, sodium 7-[2-(2-imino-4-thiazolin-4-yl)-2-hydroxyimino-acetamido]-3-acetoxymethyl-3-cephem-4-carboxylate (syn-isomer)]
ED50 (Escherichia coli 0-111 [1]; Table 3): 0.033 mg/kg | Minimal inhibitory concentration (MIC) [2]: 0.05 | Minimal inhibitory concentration (MIC) (Proteus mirabilis GN4359): 0.05 | Minimal inhibitory concentration (MIC) (Proteus rettgeri TN338): ≤ 0.012 | Minimal inhibitory concentration (MIC) [3]: 0.39 | Minimal inhibitory concentration (MIC) [4]: 6.25 | Minimal inhibitory concentration (MIC) (Proteus rettgeri GN4733): 0.024 | Minimal inhibitory concentration (MIC) (Proteus morganii IFO3168): 0.20 | Minimal inhibitory concentration (MIC) (Escherichia coli 0-111 [5]): ≤ 0.012 | Minimal inhibitory concentration (MIC) (Escherichia coli T-7): 0.39 | Minimal inhibitory concentration (MIC) [6]: 6.25 | Minimal inhibitory concentration (MIC) (Serratia marcescens TN24): 1.56 | Minimal inhibitory concentration (MIC) [7]: 0.024 | Minimal inhibitory concentration (MIC) [8]: 0.10 | Minimal inhibitory concentration (MIC) (Proteus vulgaris GN4413): 12.5 | Minimal inhibitory concentration (MIC) (Klebsiella pneumoniae DT): ≤ 0.012 | Minimal inhibitory concentration (MIC) [9]: 0.05 | Minimal inhibitory concentration (MIC) [10]: 0.05 | Minimal inhibitory concentration (MIC) [11]: 0.39

Cn1nnnc1SCC1=C(C(=O)O)N2C(=O)C(NC(=O)/C(=N\O)c3csc(=N)[nH]3)C2SC1 (stereo not drawn) [Example 12, sodium 7-[2-(2-imino-4-thiazolin-4-yl)-2-hydroxyimino-acetamido]-3-(1-methyl-1H-tetrazol-5-yl)thiomethyl-3-cephem-4-carboxylate (syn-isomer)]
ED50 (Escherichia coli 0-111 [1]; Table 3): 0.028 mg/kg | Minimal inhibitory concentration (MIC) [2]: 0.10 | Minimal inhibitory concentration (MIC) (Proteus mirabilis GN4359): 0.10 | Minimal inhibitory concentration (MIC) (Proteus rettgeri TN338): ≤ 0.012 | Minimal inhibitory concentration (MIC) [3]: 0.39 | Minimal inhibitory concentration (MIC) [4]: 0.78 | Minimal inhibitory concentration (MIC) (Proteus rettgeri GN4733): 0.05 | Minimal inhibitory concentration (MIC) (Proteus morganii IFO3168): 0.024 | Minimal inhibitory concentration (MIC) (Escherichia coli 0-111 [5]): ≤ 0.012 | Minimal inhibitory concentration (MIC) (Escherichia coli T-7): 0.78 | Minimal inhibitory concentration (MIC) [6]: 1.56 | Minimal inhibitory concentration (MIC) (Serratia marcescens TN24): 0.39 | Minimal inhibitory concentration (MIC) [7]: 0.05 | Minimal inhibitory concentration (MIC) [8]: 0.10 | Minimal inhibitory concentration (MIC) (Proteus vulgaris GN4413): 6.25 | Minimal inhibitory concentration (MIC) (Klebsiella pneumoniae DT): 0.024 | Minimal inhibitory concentration (MIC) [9]: 0.05 | Minimal inhibitory concentration (MIC) [10]: 0.05 | Minimal inhibitory concentration (MIC) [11]: 0.78

Cn1cnnc1SCC1=C(C(=O)O)N2C(=O)C(NC(=O)/C(=N\O)c3csc(=N)[nH]3)C2SC1 (stereo not drawn) [Example 15, sodium 7-[2-(2-imino-4-thiazolin-4-yl)-2-hydroxyimino-acetamido]-3-(4-methyl-1,2,4-triazol-3-yl)thiomethyl-3-cephem-4-carboxylate (syn-isomer)]
ED50 (Escherichia coli 0-111 [1]; Table 4): 0.016 mg/kg | Minimal inhibitory concentration (MIC) [2]: 0.05 | Minimal inhibitory concentration (MIC) (Proteus mirabilis GN4359): 0.10 | Minimal inhibitory concentration (MIC) (Proteus rettgeri TN338): ≤ 0.012 | Minimal inhibitory concentration (MIC) [3]: 0.78 | Minimal inhibitory concentration (MIC) [4]: 0.78 | Minimal inhibitory concentration (MIC) (Proteus rettgeri GN4733): 0.10 | Minimal inhibitory concentration (MIC) (Proteus morganii IFO3168): 0.024 | Minimal inhibitory concentration (MIC) (Escherichia coli 0-111 [5]): ≤ 0.012 | Minimal inhibitory concentration (MIC) (Escherichia coli T-7): 0.39 | Minimal inhibitory concentration (MIC) [6]: 1.56 | Minimal inhibitory concentration (MIC) (Serratia marcescens TN24): 0.78 | Minimal inhibitory concentration (MIC) [7]: 0.024 | Minimal inhibitory concentration (MIC) [8]: 0.05 | Minimal inhibitory concentration (MIC) (Proteus vulgaris GN4413): 3.13 | Minimal inhibitory concentration (MIC) (Klebsiella pneumoniae DT): 0.024 | Minimal inhibitory concentration (MIC) [9]: 0.05 | Minimal inhibitory concentration (MIC) [10]: 0.05 | Minimal inhibitory concentration (MIC) [11]: 0.78

Cc1nnc(SCC2=C(C(=O)O)N3C(=O)C(NC(=O)/C(=N\O)c4csc(=N)[nH]4)C3SC2)s1 (stereo not drawn) [Example 16, sodium 7-[2-(2-imino-4-thiazolin-4-yl)-2-hydroxyimino-acetamido]-3-(2-methyl-1,3,4-thiadiazol-5-yl)thiomethyl-3-cephem-4-carboxylate (syn-isomer)]
ED50 (Escherichia coli 0-111 [1]; Table 4): 0.035 mg/kg | Minimal inhibitory concentration (MIC) [2]: 0.20 | Minimal inhibitory concentration (MIC) (Proteus mirabilis GN4359): 0.20 | Minimal inhibitory concentration (MIC) (Proteus rettgeri TN338): ≤ 0.012 | Minimal inhibitory concentration (MIC) [3]: 0.39 | Minimal inhibitory concentration (MIC) [4]: 3.13 | Minimal inhibitory concentration (MIC) (Proteus rettgeri GN4733): 0.10 | Minimal inhibitory concentration (MIC) (Proteus morganii IFO3168): 0.05 | Minimal inhibitory concentration (MIC) (Escherichia coli 0-111 [5]): 0.024 | Minimal inhibitory concentration (MIC) (Escherichia coli T-7): 1.56 | Minimal inhibitory concentration (MIC) [6]: 6.25 | Minimal inhibitory concentration (MIC) (Serratia marcescens TN24): 0.78 | Minimal inhibitory concentration (MIC) [7]: 0.10 | Minimal inhibitory concentration (MIC) [8]: 0.20 | Minimal inhibitory concentration (MIC) (Proteus vulgaris GN4413): 6.25 | Minimal inhibitory concentration (MIC) (Klebsiella pneumoniae DT): 0.05 | Minimal inhibitory concentration (MIC) [9]: 0.10 | Minimal inhibitory concentration (MIC) [10]: 0.10 | Minimal inhibitory concentration (MIC) [11]: 0.78
